Assay results as given in patent US7465729B2, “Methods of treatment of menopause and perimenopause using eszopiclone” (Sepracor Inc., priority 2004, dated 2008).

Experiments:
[1] = tested on: conscious dogs; test: Dose escalation safety study, cardiovascular and respiratory parameters; conditions: acute intravenous, 3, 5 and 12 mg/kg
Experimental: To establish the safety of eszopiclone, a dose escalation study was carried out. Cardiovascular and respiratory parameters were evaluated in conscious dogs following acute intravenous administration of (R)-, (S)- or racemic zopiclone at three doses (3, 5 and 12 mg/kg).

[2] = tested on: mice; test: Antimuscarinic activity in vivo: mydriasis; conditions: any dose tested, maximum dose 100 mg/kg, p.o.
Experimental: (§1) Eszopiclone was evaluated for antimuscarinic activity in vivo.

[3] = tested on: mice; test: Antimuscarinic activity in vivo: oxotremorine induced salivation; conditions: doses up to 300 mg/kg, p.o.
Experimental: as §1

[4] = tested on: benzodiazepine receptor complex; conditions: cited from earlier work
[5] = in vivo; cited from earlier work
[6] = tested on: plasma proteins; conditions: cited from earlier work

SMILES: CN1CCN(C(=O)OC2c3nccnc3C(=O)N2c2ccc(Cl)cn2)CC1 (racemic) [racemic zopiclone]
- cardiotoxicity, as evidenced by the electrocardiogram (ECG) [1]: No evidence of cardiotoxicity
- effect on blood pressure [1]: dose dependent, transient decreases in blood pressure
- effect on heart rate [1]: compensatory increase in heart rate
- Blood gases and blood chemistries (pH, pCO2, pO2, hematocrit, and lactate) ([1]; all dose groups): remained unaffected
- mydriasis [2]: did not produce mydriasis
- antagonism of oxotremorine induced salivation [3]: neither (R)-, (S)-, nor racemic zopiclone significantly antagonized oxotremorine induced salivation
- binding to the benzodiazepine receptor complex [4]: binds to the benzodiazepine receptor complex, or to a site linked closely to this receptor complex
- absorption from the stomach [5]: well absorbed
- binding to plasma proteins [6]: not highly bound
